Laboratory results as given in patent US20130330756A1, “DETECTION OF BACTERIA EXHIBITING ENZYMATIC RESISTANCE TO CARBAPENEMS” (BIOMERIEUX, priority 2011, published 2013).
Where two headings read alike, the source gives them in different places. Values belong to the compound of their own block, whether it stands above or below them. Peptide text beside a SMILES is read from it. * marks the point of attachment. βNA = c1ccc2cc(N*)ccc2c1

How the values were obtained:
[1] = test system: ESBL Escherichia coli strain; test: Ertapenem E-test MIC, ESBL strain; assay type: cell-based; details: cloxacillin 200 mg/l and/or PAbetaN 25 mg/l, vs medium without either
Protocol: (§1) The effect of cloxacillin and PAbetaN on the MICs of the strains with ertapenem was evaluated firstly using E-test® strips in Mueller Hinton medium. […] The second test consisted in evaluating the impact of these 2 compounds on the MICs with ertapenem of 29 carbapenemases-producing strains (+1 ESBL).
(§2) Test B101001: twenty-nine carbapenemase-producing strains divided as follows: 27 Klebsiella pneumoniae strains producing class A KPC carbapenemase (KPC), and 2 strains respectively of Klebsiella pneumoniae and Citrobacter freundii which produce class-B carbapenemase (NDM-1). This test also comprised an ESBL Escherichia coli strain.
(§3) The E-tests were performed in Mueller-Hinton medium supplemented or not supplemented with cloxacillin and/or PAbetaN according to Table I:
(§4) 2. Test • Production for each strain of an approximately 0.5 McF suspension in a 0.85% NaCl ampule. • Seeding of the 4 media by semi-automatic swabbing. • Drying of the dishes at ambient temperature for 5 to 15 min. • Application of the ertapenem E-test® strip. • Incubation for 16 to 20 hours at 37° C.

[2] = test system: Citrobacter IR strain; test: Ertapenem E-test MIC, IR Citrobacter strain; assay type: cell-based, Citrobacter freundii; details: cloxacillin 200 mg/l and/or PAbetaN 25 mg/l, vs medium without either
Protocol: as §1
(§5) Test B100904: the 19 impermeability-resistant (IR) strains belong to the following species: 10 Enterobacter aerogenes, 2 Enterobacter cloacae, 1 Citrobacter freundii, 1 Pseudomonas aeruginosa, 3 Proteus mirabilis and 2 Morganella morganii.
as §3, §4

[3] = test system: Enterobacter IR strains; test: Ertapenem E-test MIC, impermeability-resistant (IR) Enterobacter strains; assay type: cell-based, Enterobacter aerogenes, Enterobacter cloacae; details: for MIC with ertapenem: E. aerogenes strain 9306074; for number of strains: >2 MIC steps impact on ertapenem MIC / number of strains: No impact on ertapenem MIC: Enterobacter IR strains, Mueller Hinton, cloxacillin 200 mg/l and/or PAbetaN 25 mg/l, vs medium without either
Protocol: as §1, §5, §3, §4

[4] = test system: carbapenemase-producing strains; assay type: cell-based
Protocol: as §1, §2, §3, §4

[5] = test system: class A KPC carbapenemase producing strains; test: Ertapenem E-test MIC, KPC strains; assay type: cell-based, Klebsiella pneumoniae
Protocol: as §1, §2, §3, §4

[6] = test system: 19 impermeability-resistant (IR) strains; test: Ertapenem E-test MIC, all 19 IR strains (TOTAL); assay type: cell-based; details: for number of strains: >2 MIC steps impact on ertapenem MIC / number of strains: No impact on ertapenem MIC / number of strains: ≦2 MIC steps impact on ertapenem MIC: TOTAL of 19 IR strains, cloxacillin 200 mg/l and/or PAbetaN 25 mg/l, vs medium without either
Protocol: as §1, §5, §3, §4

[7] = test system: Morganella IR strains; test: Ertapenem E-test MIC, IR Morganella strains; assay type: cell-based, Morganella morganii; details: cloxacillin 200 mg/l and/or PAbetaN 25 mg/l, vs medium without either
Protocol: as §1, §5, §3, §4

[8] = test system: class-B carbapenemase (NDM-1) producing strains; test: Ertapenem E-test MIC, NDM-1 strains; assay type: cell-based, Klebsiella pneumoniae, Citrobacter freundii; details: cloxacillin 200 mg/l and/or PAbetaN 25 mg/l, vs medium without either
Protocol: as §1, §2, §3, §4

[9] = test system: Proteus IR strains; test: Ertapenem E-test MIC, IR Proteus strains; assay type: cell-based, Proteus mirabilis; details: cloxacillin 200 mg/l and/or PAbetaN 25 mg/l, vs medium without either
Protocol: as §1, §5, §3, §4

[10] = test system: carbapenemase-producing strains; test: Agar dilution growth on chromogenic media with faropenem, carbapenemase-producing strains; assay type: cell-based
Protocol: (§6) Seventy-seven strains of Gram-negative bacteria, of which 71 are enterobacteria and 6 non-enterobacteria (non-fermenting bacteria), whose resistance characteristics are set out in Table IV, were tested on media containing different concentrations of faropenem and cloxacillin, with or without PAbetaN, in order to establish the sensitivity and the specificity of each formulation. The tested media are described in Table V.
(§7) The chromogenic media are divided into 120×120 square dishes.
(§8) The seeding is performed from 24-h pre-cultures at 37° C. on trypcase soy agar. For each strain, a 0.5 McF suspension in physiological water is produced. Each suspension is spot-seeded (1 to 2 μL) on each medium with the aid of a multi-point inoculator according to the Agar Dilution (AD) method. Readings are performed after 24 hours of incubation at 37° C.
(§9) An absence of bacterial growth or a number of colonies which is less than or equal to 3 are considered as corresponding to a growth inhibition. The presence of 4 colonies or more is considered to be positive growth.

[11] = test system: Pseudomonas IR strain; test: Ertapenem E-test MIC, IR Pseudomonas strain; assay type: cell-based, Pseudomonas aeruginosa
Protocol: as §1, §5, §3, §4

[12] = test system: 19 IR strains; test: Agar dilution growth on chromogenic media with faropenem, IR strains; assay type: cell-based; details: for additional IR strains inhibited: faropenem 16 mg/L
Protocol: as §6, §7, §8, §9

[13] = PAbetaN alone in Mueller Hinton
[14] = TOTAL (ESBL+NDM+KPC), cloxacillin 200 mg/l and/or PAbetaN 25 mg/l, vs medium without either
[15] = KPC strains, cloxacillin 200 mg/l and/or PAbetaN 25 mg/l, vs medium without either
[16] = PAbetaN added to cloxacillin, against MICs with cloxacillin, 17 strains already decreased >2 steps by cloxacillin
[17] = Pseudomonas IR strain, cloxacillin 200 mg/l and/or PAbetaN 25 mg/l, vs medium without either

SMILES: NC(N)=NCCC[C@H](NC(=O)[C@@H](N)Cc1ccccc1)C(=O)Nc1ccc2ccccc2c1 [PAbetaN, phenylalanine-arginine-beta-naphthylamide] (H-Phe-Arg-βNA)
number of strains: ≦2 MIC steps, positive MIC effect [1]: 1
number of strains: No impact on ertapenem MIC [2]: 1
MIC with ertapenem ([3]; in the presence of PAbetaN alone): > 32 µg/mL
number of strains: >2 MIC steps impact on ertapenem MIC [3]: 2
number of strains: No impact on ertapenem MIC [3]: 10
number of strains with MIC with ertapenem slightly increased [4, 13]: 15
number of strains with MIC with ertapenem very distinctly increased [4, 13]: 7
number of strains: >2 MIC steps, positive MIC effect [4, 14]: 7
number of strains: No impact on ertapenem MIC [4, 14]: 5
number of strains: ≦2 MIC steps, negative MIC effect [4, 14]: 2
number of strains: ≦2 MIC steps, positive MIC effect [4, 14]: 15
number of strains: >2 MIC steps, positive MIC effect [5, 15]: 7
number of strains: No impact on ertapenem MIC [5, 15]: 3
number of strains: ≦2 MIC steps, negative MIC effect [5, 15]: 2
number of strains: ≦2 MIC steps, positive MIC effect [5, 15]: 14
number of IR strains unimpacted [6, 16]: 1
number of IR strains with MICs decreased by two additional MIC steps [6, 16]: 7
number of IR strains with less significantly decreased MICs (≦2 MIC steps) [6, 16]: 5
impact of PAbetaN alone on ertapenem MICs of the majority of the IR strains ([6]; PAbetaN alone): no impact
number of strains: >2 MIC steps impact on ertapenem MIC [6]: 2
number of strains: No impact on ertapenem MIC [6]: 17
number of strains: ≦2 MIC steps impact on ertapenem MIC [6]: 0
number of strains: No impact on ertapenem MIC [7]: 2
number of strains: No impact on ertapenem MIC [8]: 2
number of strains: No impact on ertapenem MIC [9]: 3
detection sensitivity with vs without PAbetaN ([10]; 200 mg/L cloxacillin and 8 or 16 mg/L faropenem): does not change
detection sensitivity with vs without PAbetaN ([10]; 8 or 16 mg/L faropenem with 50 or 100 mg/L cloxacillin): greater
effect on ertapenem MIC of adding PAbetaN in addition to cloxacillin ([11]; P. aeruginosa IR strain): not affected
number of strains: No impact on ertapenem MIC [11, 17]: 1

SMILES: C[C@@H](O)[C@H]1C(=O)N2C(C(=O)O)=C([C@H]3CCCO3)S[C@H]12 [Faropenem, faropenem]
impact on growth of IR strains ([12]; faropenem alone, up to 16 mg/L): little impact

SMILES: Cc1onc(-c2ccccc2Cl)c1C(=O)N[C@@H]1C(=O)N2[C@@H]1SC(C)(C)[C@@H]2C(=O)O [CLX, cloxacillin]
number of strains: No impact on ertapenem MIC [1]: 1
number of strains: >2 MIC steps impact on ertapenem MIC [2]: 1
MIC with ertapenem in medium with the named additive ([3]; E. cloacae IR strain unimpacted by cloxacillin alone): > 32 µg/mL
number of strains: >2 MIC steps impact on ertapenem MIC [3]: 11
number of strains: No impact on ertapenem MIC [3]: 1
number of strains: >2 MIC steps, positive MIC effect [4, 14]: 2
number of strains: No impact on ertapenem MIC [4, 14]: 10
number of strains: ≦2 MIC steps, negative MIC effect [4, 14]: 16
number of strains: >2 MIC steps, negative MIC effect ([4]; TOTAL (ESBL+NDM+KPC), cloxacillin 200 mg/l, vs medium without): 1
number of carbapenemase-producing strains (NDM or KPC) with no impact on MIC with ertapenem ([4]; cloxacillin): 9
number of carbapenemase-producing strains with MIC slightly reduced ([4]; cloxacillin): 16
number of strains: >2 MIC steps, positive MIC effect [5]: 2
number of strains: No impact on ertapenem MIC [5]: 7
number of strains: ≦2 MIC steps, negative MIC effect [5]: 16
number of strains: >2 MIC steps, negative MIC effect ([5]; 200 ug/mL): 1
number of strains: >2 MIC steps impact on ertapenem MIC [6]: 17
number of strains: No impact on ertapenem MIC [6]: 1
number of strains: ≦2 MIC steps impact on ertapenem MIC [6]: 1
IR strains whose MICs with ertapenem are reduced by more than 2 concentration steps ([6]; cloxacillin added to Mueller Hinton medium): 16/19
number of strains: >2 MIC steps impact on ertapenem MIC [7]: 2
number of strains: No impact on ertapenem MIC [8]: 2
number of strains: >2 MIC steps impact on ertapenem MIC [9]: 3
impact on growth of carbapenemase-producing strains ([10]; cloxacillin alone, at the 3 concentrations of faropenem tested): little or no impact
number of strains: ≦2 MIC steps impact on ertapenem MIC [11, 17]: 1
additional IR strains inhibited ([12]; addition of 50 mg/L cloxacillin): 6
additional IR strains inhibited ([12]; addition of 200 mg/L cloxacillin): 9

MIC with ertapenem ([3]; without PAbetaN): 6 µg/mL
SMILES: C[C@@H](O)[C@H]1C(=O)N2C(C(=O)O)=C(S[C@@H]3CN[C@H](C(=O)Nc4cccc(C(=O)O)c4)C3)[C@H](C)[C@H]12 [ertapenem]
